Tests used:
HiBit-BRG1 = target: T1, HiBit-BRG1 (Homo sapiens, UniProt P51532); assay: HiBit-BRG1 cell-based degradation assay (Nano-Glo HiBiT Lytic Detection); conditions: HeLa cells expressing HiBit-BRG1 and LgBit, 24 h; for DC50: read-out: BRG1 HiBit Degradation IC50; for Dmax: read-out: BRG1 HiBit Degradation Maximum (%)
T1 construct: expressed in transfected cells
In short: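 Percent degradation derived from lytic HiBiT signal, normalized to DMSO-treated cells and to cells given 2 μM of a known BRM/BRG1 degrader. The HeLa line stably expressed HiBit-BRG1 and LgBit; treatment lasted 24 h at 5000 cells per well.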

HiBiT-BRM = target: T2, HiBiT-BRM (Homo sapiens, UniProt P51531); assay: HiBiT-BRM cell-based degradation assay (Nano-Glo HiBiT Lytic Detection); conditions: HeLa cells expressing HiBiT-BRM, 24 h; for DC50: read-out: BRM HiBit Degradation IC50
T2 construct: expressed in transfected cells
In short: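 Luminescence from HiBiT–LgBiT complementation in lysates of a stable HiBiT-BRM HeLa line measured after 24 h compound exposure. Degradation expressed as percent relative to DMSO-treated cells and cells given 2 μM of a known BRM/BRG1 degrader.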

T2 sequence (P51531 whole entry): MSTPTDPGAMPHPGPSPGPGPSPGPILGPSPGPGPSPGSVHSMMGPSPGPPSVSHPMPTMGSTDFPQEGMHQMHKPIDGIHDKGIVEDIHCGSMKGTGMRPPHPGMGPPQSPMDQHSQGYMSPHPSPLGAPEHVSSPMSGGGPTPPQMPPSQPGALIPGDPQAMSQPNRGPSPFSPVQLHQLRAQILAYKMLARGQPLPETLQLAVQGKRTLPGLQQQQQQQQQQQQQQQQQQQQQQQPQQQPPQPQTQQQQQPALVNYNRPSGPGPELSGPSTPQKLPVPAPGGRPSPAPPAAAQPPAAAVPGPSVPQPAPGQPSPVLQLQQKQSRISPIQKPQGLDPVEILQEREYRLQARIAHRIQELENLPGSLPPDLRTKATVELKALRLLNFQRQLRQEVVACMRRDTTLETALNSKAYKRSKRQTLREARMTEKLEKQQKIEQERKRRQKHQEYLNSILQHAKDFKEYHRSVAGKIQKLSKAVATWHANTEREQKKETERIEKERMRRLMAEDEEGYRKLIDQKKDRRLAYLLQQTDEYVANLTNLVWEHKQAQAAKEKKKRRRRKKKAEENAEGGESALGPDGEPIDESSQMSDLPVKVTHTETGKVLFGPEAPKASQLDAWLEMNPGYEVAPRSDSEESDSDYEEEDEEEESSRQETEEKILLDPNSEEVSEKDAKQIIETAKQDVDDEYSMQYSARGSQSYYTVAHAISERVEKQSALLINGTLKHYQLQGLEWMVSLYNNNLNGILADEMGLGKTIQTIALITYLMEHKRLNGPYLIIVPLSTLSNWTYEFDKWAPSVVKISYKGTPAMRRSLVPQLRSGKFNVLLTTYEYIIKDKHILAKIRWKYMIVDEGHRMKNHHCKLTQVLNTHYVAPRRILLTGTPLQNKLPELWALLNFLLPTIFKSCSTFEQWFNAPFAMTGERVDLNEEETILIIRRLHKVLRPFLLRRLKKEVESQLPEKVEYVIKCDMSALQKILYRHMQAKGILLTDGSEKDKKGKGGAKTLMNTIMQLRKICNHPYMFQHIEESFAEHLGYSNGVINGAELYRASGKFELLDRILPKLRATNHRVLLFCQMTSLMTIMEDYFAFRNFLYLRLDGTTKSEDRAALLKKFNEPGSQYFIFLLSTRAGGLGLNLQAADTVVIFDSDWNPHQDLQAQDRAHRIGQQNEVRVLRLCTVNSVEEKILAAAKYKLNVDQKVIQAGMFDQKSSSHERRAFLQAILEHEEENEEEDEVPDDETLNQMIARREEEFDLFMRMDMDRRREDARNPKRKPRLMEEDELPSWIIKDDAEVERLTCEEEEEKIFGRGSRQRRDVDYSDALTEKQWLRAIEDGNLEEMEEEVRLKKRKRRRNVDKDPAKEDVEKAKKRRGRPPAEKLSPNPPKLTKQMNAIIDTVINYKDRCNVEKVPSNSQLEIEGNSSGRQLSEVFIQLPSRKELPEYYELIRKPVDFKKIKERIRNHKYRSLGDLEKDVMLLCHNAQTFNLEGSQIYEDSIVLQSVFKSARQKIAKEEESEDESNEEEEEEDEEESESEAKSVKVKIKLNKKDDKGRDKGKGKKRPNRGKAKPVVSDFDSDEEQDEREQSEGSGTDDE
T1 sequence (P51532 whole entry): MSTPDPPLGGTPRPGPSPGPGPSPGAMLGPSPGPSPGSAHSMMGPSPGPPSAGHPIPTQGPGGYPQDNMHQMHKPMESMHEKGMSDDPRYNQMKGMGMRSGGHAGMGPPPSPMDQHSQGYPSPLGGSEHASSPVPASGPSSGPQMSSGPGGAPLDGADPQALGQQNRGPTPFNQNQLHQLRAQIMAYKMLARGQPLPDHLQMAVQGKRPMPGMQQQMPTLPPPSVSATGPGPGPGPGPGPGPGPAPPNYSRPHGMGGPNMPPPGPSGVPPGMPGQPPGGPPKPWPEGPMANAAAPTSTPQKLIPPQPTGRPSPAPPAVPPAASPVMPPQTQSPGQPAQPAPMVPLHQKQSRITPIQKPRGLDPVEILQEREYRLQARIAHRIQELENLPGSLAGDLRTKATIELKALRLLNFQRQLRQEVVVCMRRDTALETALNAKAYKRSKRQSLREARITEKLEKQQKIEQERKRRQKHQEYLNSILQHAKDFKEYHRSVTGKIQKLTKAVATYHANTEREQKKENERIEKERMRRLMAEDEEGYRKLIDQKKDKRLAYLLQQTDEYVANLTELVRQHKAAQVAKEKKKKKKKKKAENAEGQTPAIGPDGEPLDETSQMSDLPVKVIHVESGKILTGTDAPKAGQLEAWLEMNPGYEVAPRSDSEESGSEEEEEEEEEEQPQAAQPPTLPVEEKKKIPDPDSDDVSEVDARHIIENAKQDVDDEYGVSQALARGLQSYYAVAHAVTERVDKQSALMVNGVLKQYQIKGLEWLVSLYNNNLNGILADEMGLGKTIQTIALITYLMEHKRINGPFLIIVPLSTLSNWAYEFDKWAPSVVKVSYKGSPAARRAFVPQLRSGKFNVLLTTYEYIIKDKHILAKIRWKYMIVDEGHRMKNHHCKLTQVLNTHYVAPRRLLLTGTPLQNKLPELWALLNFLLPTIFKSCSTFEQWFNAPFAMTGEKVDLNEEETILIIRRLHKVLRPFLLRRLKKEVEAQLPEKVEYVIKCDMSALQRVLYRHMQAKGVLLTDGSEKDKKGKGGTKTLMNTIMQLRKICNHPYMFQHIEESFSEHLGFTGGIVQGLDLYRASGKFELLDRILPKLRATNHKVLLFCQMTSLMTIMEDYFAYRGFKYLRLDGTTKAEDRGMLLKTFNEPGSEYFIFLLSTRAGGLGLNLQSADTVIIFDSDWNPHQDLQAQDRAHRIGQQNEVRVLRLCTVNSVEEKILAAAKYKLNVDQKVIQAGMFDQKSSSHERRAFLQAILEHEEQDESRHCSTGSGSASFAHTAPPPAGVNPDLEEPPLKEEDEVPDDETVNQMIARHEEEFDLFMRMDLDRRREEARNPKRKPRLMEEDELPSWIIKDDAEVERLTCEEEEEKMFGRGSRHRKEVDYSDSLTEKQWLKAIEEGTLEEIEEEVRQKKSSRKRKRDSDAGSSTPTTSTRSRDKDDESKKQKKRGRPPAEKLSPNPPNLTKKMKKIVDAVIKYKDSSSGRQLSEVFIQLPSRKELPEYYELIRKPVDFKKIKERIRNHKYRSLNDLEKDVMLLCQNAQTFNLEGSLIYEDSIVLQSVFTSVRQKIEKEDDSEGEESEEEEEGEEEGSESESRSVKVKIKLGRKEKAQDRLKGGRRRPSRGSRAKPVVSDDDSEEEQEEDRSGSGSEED

SMILES	DC50 (HiBit-BRG1) [nM]	Dmax (HiBit-BRG1) [%]	DC50 (HiBiT-BRM) [nM]	BRM HiBit Degradation Maximum (%) (HiBiT-BRM)
Cc1ncsc1-c1ccc(CNC(=O)[C@@H]2C[C@@H](O)CN2C(=O)[C@@H](NC(=O)CCN2[C@@H]3CC[C@H]2CN(C(=O)c2ccc(CCOc4cc(-c5ccccc5O)nnc4N)cc2)C3)C(C)(C)C)cc1 [Compound 216, (2S,4R)-1-((2S)-2-(3-(3-(4-(2-((3-amino-6-(2-hydroxyphenyl)pyridazin-4-yl)oxy)ethyl)benzoyl)-3,8-diazabicyclo[3.2.1]octan-8-yl)propanamido)-3,3-dimethylbutanoyl)-4-hydroxy-N-(4-(4-methylthiazol-5-yl)benzyl)pyrrolidine-2-carboxamide]	> 1000	< 50	> 1000	C (“C” indicates maximum degradation <50%)
Nc1nnc(-c2ccccc2O)cc1OCCc1ccc(CNC(=O)CCCCOc2ccc3c(c2)C(=O)N(C2CCC(=O)NC2=O)C3=O)cc1 (centres unmarked) [Compound 5, N-(4-(2-((3-amino-6-(2-hydroxyphenyl)pyridazin-4-yl)oxy)ethyl)benzyl)-5-((2-(2,6-dioxopiperidin-3-yl)-1,3-dioxoisoindolin-5-yl)oxy)pentanamide]	> 1000		> 1000	C (“C” indicates maximum degradation <50%)
Cc1ncsc1-c1ccc(CNC(=O)[C@@H]2C[C@@H](O)CN2C(=O)[C@@H](NC(=O)CCCCCCCCCCCCC(=O)NCc2ccc(CCOc3cc(-c4ccccc4O)nnc3N)cc2)C(C)(C)C)cc1 [Compound 36]	> 1000	< 50	> 10	B (“B” indicates maximum degradation ≥50%)
Cc1ncsc1-c1ccc(CNC(=O)[C@@H]2C[C@@H](O)CN2C(=O)[C@@H](NC(=O)CCCCCCC(=O)NCc2ccc(CCOc3cc(-c4ccccc4O)nnc3N)cc2)C(C)(C)C)cc1 [Compound 30]	> 1000	< 50	> 100	A (“A” indicates maximum degradation ≥75%)
Cc1ncsc1-c1ccc(CNC(=O)[C@@H]2C[C@@H](O)CN2C(=O)[C@@H](NC(=O)CCN2CCC(CC(=O)NCc3ccc(CCOc4cc(-c5ccccc5O)nnc4N)cc3)CC2)C(C)(C)C)cc1 [Compound 181, (2S,4R)-1-((S)-2-(3-(4-(2-((4-(2-((3-amino-6-(2-hydroxyphenyl)pyridazin-4-yl)oxy)ethyl)benzyl)amino)-2-oxoethyl)piperidin-1-yl)propanamido)-3,3-dimethylbutanoyl)-4-hydroxy-N-(4-(4-methylthiazol-5-yl)benzyl)pyrrolidine-2-carboxamide]	> 1000	< 50	> 1000	C (“C” indicates maximum degradation <50%)
Nc1nnc(-c2ccccc2O)cc1OCCc1ccc(C(=O)NCCCCCC(=O)NCc2ccc(S(=O)(=O)Nc3cccc4c(Cl)c[nH]c34)cc2)cc1 [Compound 14, 6-[[4-(2-[[3-amino-6-(2-hydroxyphenyl)pyridazin-4-yl]oxy]ethyl)phenyl]formamido]-N-([4-[(3-chloro-1H-indol-7-yl)sulfamoyl]phenyl]methyl)hexanamide]	> 1000	< 50	> 1000	C (“C” indicates maximum degradation <50%)

Second part, led by results:

DC50 (HiBit-BRG1) [nM]	Dmax (HiBit-BRG1) [%]	DC50 (HiBiT-BRM) [nM]	SMILES	BRM HiBit Degradation Maximum (%) (HiBiT-BRM)
> 1000	< 50	> 1000	Cc1ncsc1-c1ccc(CNC(=O)[C@@H]2C[C@@H](O)CN2C(=O)[C@@H](NC(=O)COCCOCC(=O)NCc2ccc(CCOc3cc(-c4ccccc4O)nnc3N)cc2)C(C)(C)C)cc1 [Compound 164, (2S,4R)-1-((S)-1-(4-(2-((3-amino-6-(2-hydroxyphenyl)pyridazin-4-yl)oxy)ethyl)phenyl)-12-(tert-butyl)-3,10-dioxo-5,8-dioxa-2,11-diazatridecan-13-oyl)-4-hydroxy-N-(4-(4-methylthiazol-5-yl)benzyl)pyrrolidine-2-carboxamide]	B (“B” indicates maximum degradation ≥50%)
> 1000	> 75	> 1000	Nc1nnc(-c2ccccc2O)cc1OCCc1ccc(CNCCCCCNc2ccc3c(c2)C(=O)N(C2CCC(=O)NC2=O)C3=O)cc1 (centres unmarked) [Compound 117, 5-[[5-([[4-(2-[[3-amino-6-(2-hydroxyphenyl)pyridazin-4-yl]oxy]ethyl)phenyl]methyl]amino)pentyl]amino]-2-(2,6-dioxopiperidin-3-yl)isoindole-1,3-dione]	B (“B” indicates maximum degradation ≥50%)
> 1000	< 50	> 100	Nc1nnc(-c2ccccc2O)cc1OCCc1ccc(CNC(=O)CCCCOc2cccc3c2C(=O)N(C2CCC(=O)NC2=O)C3=O)cc1 (centres unmarked) [Compound 67, N-[[4-(2-[[3-amino-6-(2-hydroxyphenyl)pyridazin-4-yl]oxy]ethyl)phenyl]methyl]-5-[[2-(2,6-dioxopiperidin-3-yl)-1,3-dioxoisoindol-4-yl]oxy]pentanamide]	A (“A” indicates maximum degradation ≥75%)
> 1000	< 50	> 1000	Cc1ncsc1-c1ccc([C@H](C)NC(=O)[C@@H]2C[C@@H](O)CN2C(=O)[C@@H](NC(=O)CCN2C[C@H]3CN(CCC(=O)NCc4ccc(CCOc5cc(-c6ccccc6O)nnc5N)cc4)C[C@H]3C2)C(C)(C)C)cc1 [Compound 259, (2S,4R)-1-((2S)-2-(3-(5-(3-((4-(2-((3-amino-6-(2-hydroxyphenyl)pyridazin-4-yl)oxy)ethyl)benzyl)amino)-3-oxopropyl)hexahydropyrrolo[3,4-c]pyrrol-2(1H)-yl)propanamido)-3,3-dimethylbutanoyl)-4-hydroxy-N-((S)-1-(4-(4-methylthiazol-5-yl)phenyl)ethyl)pyrrolidine-2-carboxamide]	C (“C” indicates maximum degradation <50%)
> 1000	< 50	> 1000	Nc1nnc(-c2ccccc2O)cc1N1CCN(CCNC(=O)CCCCCCCCCCNc2cccc3c2C(=O)N(C2CCC(=O)NC2=O)C3=O)CC1 (centres unmarked) [Compound 88, N-(2-[4-[3-amino-6-(2-hydroxyphenyl)pyridazin-4-yl]piperazin-1-yl]ethyl)-11-[[2-(2,6-dioxopiperidin-3-yl)-1,3-dioxoisoindol-4-yl]amino]undecanamide]	C (“C” indicates maximum degradation <50%)
> 100	> 75	> 10	Cc1ncsc1-c1ccc([C@H](C)NC(=O)[C@@H]2C[C@@H](O)CN2C(=O)[C@@H](c2cc(OCCN3C[C@@H]4CN(C(=O)c5ccc(CCOc6cc(-c7ccccc7O)nnc6N)cc5)C[C@@H]4C3)no2)C(C)C)cc1 [Compound 190, (2S,4R)-1-((2R)-2-(3-(2-(5-(4-(2-((3-amino-6-(2-hydroxyphenyl)pyridazin-4-yl)oxy)ethyl)benzoyl)hexahydropyrrolo[3,4-c]pyrrol-2(1H)-yl)ethoxy)isoxazol-5-yl)-3-methylbutanoyl)-4-hydroxy-N-((S)-1-(4-(4-methylthiazol-5-yl)phenyl)ethyl)pyrrolidine-2-carboxamide]	A (“A” indicates maximum degradation ≥75%)

From patent publication US20230150974A1 (Foghorn Therapeutics Inc., priority 2020, published 2023)
